Results: patent US9085576B2 (AMGEN INC., priority 2013, dated 2015)

Each compound was assayed against Cathepsin D (Cat D) (Homo sapiens (Human), UniProt P07339) (assay: In vitro enzymatic Cathepsin D (Cat D) FRET assay). Details: read-out: CatD IC50.
Format: biochemical

Cathepsin D (Cat D), sequence (P07339 65-412, species assumed): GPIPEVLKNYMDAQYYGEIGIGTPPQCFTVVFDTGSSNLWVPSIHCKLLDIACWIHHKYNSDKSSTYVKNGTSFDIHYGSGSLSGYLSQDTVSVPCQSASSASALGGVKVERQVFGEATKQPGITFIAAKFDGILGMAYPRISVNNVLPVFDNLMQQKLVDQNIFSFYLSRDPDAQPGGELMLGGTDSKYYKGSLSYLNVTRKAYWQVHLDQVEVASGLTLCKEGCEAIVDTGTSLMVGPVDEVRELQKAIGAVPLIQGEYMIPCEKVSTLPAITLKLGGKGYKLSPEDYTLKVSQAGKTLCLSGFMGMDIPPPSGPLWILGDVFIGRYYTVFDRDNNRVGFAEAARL

| IC50 [µM] | Compound |
| --- | --- |
| > 400 | N#Cc1ccc(C(=O)Nc2ccc(F)c([C@]3(C(F)F)N=C(N)O[C@H]4C[C@H]43)c2)nc1 [Example 65, N-(3-((1S,5R,6S)-3-amino-5-(difluoromethyl)-2-oxa-4-azabicyclo[4.1.0]hept-3-en-5-yl)-4-fluorophenyl)-5-cyanopicolinamide] |
| 899 | N#Cc1ccc(C(=O)Nc2ccc(F)c([C@]3(C(F)F)N=C(N)O[C@H]4C[C@H]43)c2)nc1 (racemic) [Example 59, N-(3-([1(R,S),5(S,R),6(R,S)]-3-amino-5-(difluoromethyl)-2-oxa-4-azabicyclo[4.1.0]hept-3-en-5-yl)-4-fluorophenyl)-5-cyanopicolinamide compound] |
| > 400 | Cc1cc(NC(=O)c2ncc(C#N)cn2)cc([C@@]2(C(F)F)N=C(N)O[C@@H]3C[C@@H]32)c1F [Example 298, N-(3-((1R,5S,6R)-3-amino-5-(difluoromethyl)-2-oxa-4-azabicyclo[4.1.0]hept-3-en-5-yl)-4-fluoro-5-methylphenyl)-5-cyanopyrimidine-2-carboxamide] |
| 4180 | COc1cnc(C(=O)Nc2cc(F)c(F)c([C@@]3(C(F)F)N=C(N)O[C@@H]4C[C@@H]43)c2)cn1 [Example 112, N-(3-((1R,5S,6R)-3-amino-5-(difluoromethyl)-2-oxa-4-azabicyclo[4.1.0]hept-3-en-5-yl)-4,5-difluorophenyl)-5-methoxypyrazine-2-carboxamide] |
| 736 | COCc1cc(Cl)cnc1C(=O)Nc1ccc(F)c([C@@]2(C(F)F)N=C(N)O[C@@H]3C[C@@H]32)c1 [Example 42, N-(3-((1R,5S,6R)-3-amino-5-(difluoromethyl)-2-oxa-4-azabicyclo[4.1.0]hept-3-en-5-yl)-4-fluorophenyl)-5-chloro-3-(methoxymethyl) picolinamide] |
| 472 | NC1=N[C@](c2cc(NC(=O)c3ccc(Cl)cn3)cc(F)c2F)(C(F)F)[C@@H]2C[C@@H]2O1 [Example 108, N-(3-((1S,5R,6S)-3-amino-5-(difluoromethyl)-2-oxa-4-azabicyclo[4.1.0]hept-3-en-5-yl)-4,5-difluorophenyl)-5-chloropicolinamide] |
| 849 | C#C[C@@H](C)Oc1cnc(C(=O)Nc2ccc(F)c([C@@]3(C(F)F)N=C(N)O[C@@H]4C[C@@H]43)c2)cn1 [Example 148, N-(3-((1R,5S,6R)-3-amino-5-(difluoromethyl)-2-oxa-4-azabicyclo[4.1.0]hept-3-en-5-yl)-4-fluorophenyl)-5-((R)-but-3-yn-2-yloxy)pyrazine-2-carboxamide] |
| 1920 | N#Cc1ccc(C(=O)Nc2ccc(Cl)c([C@]3(C(F)F)N=C(N)O[C@H]4C[C@H]43)c2)nc1 [Example 94, N-(3-((1S,5R,6S)-3-amino-5-(difluoromethyl)-2-oxa-4-azabicyclo[4.1.0]hept-3-en-5-yl)-4-chlorophenyl)-5-cyanopicolinamide] |
| 716 | Cc1ccc(NC(=O)c2ccc(C#N)cn2)cc1[C@@]1(C(F)F)N=C(N)O[C@@H]2C[C@@H]21 [Example 269, N-(3-((1R,5S,6R)-3-amino-5-(difluoromethyl)-2-oxa-4-azabicyclo[4.1.0]hept-3-en-5-yl)-4-methylphenyl)-5-cyanopicolinamide] |
| 1230 | Cc1cc(NC(=O)c2ccc(Cl)cn2)cc([C@]2(C(F)F)N=C(N)O[C@H]3C[C@H]32)c1F [Example 124, N-(3-((1 S,5R,6S)-3-amino-5-(difluoromethyl)-2-oxa-4-azabicyclo[4.1.0]hept-3-en-5-yl)-4-fluoro-5-methylphenyl)-5-chloropicolinamide] |
| 364 | N#Cc1ccc(C(=O)Nc2cc(F)c(F)c([C@@]3(CF)N=C(N)O[C@@H]4C[C@@H]43)c2)nc1 [Example 37, N-(3-((1R,5S,6R)-3-amino-5-(fluoromethyl)-2-oxa-4-azabicyclo[4.1.0]hept-3-en-5-yl)-4,5-difluorophenyl)-5-cyanopicolinamide] |
| 81.9 | NC1=N[C@@](c2cc(NC(=O)c3ccc(Br)cn3)cc(F)c2F)(C(F)F)[C@H]2C[C@H]2O1 [Example 116, N-(3-((1R,5S,6R)-3-amino-5-(difluoromethyl)-2-oxa-4-azabicyclo[4.1.0]hept-3-en-5-yl)-4,5-difluorophenyl)-5-bromopicolinamide] |
| > 618 | N#Cc1ccc(C(=O)Nc2cc(F)c(F)c([C@@]3(C(F)F)N=C(N)O[C@@H]4C[C@@H]43)c2)nc1 [Example 113, N-(3-((1R,5S,6R)-3-amino-5-(difluoromethyl)-2-oxa-4-azabicyclo[4.1.0]hept-3-en-5-yl)-4,5-difluorophenyl)-5-cyanopicolinamide] |
| 768 | COc1c(F)cc(NC(=O)c2ccc(Cl)cn2)cc1[C@]1(CF)N=C(N)O[C@H]2C[C@H]21 [Example 146, N-(3-((1S,5R,6S)-3-amino-5-(fluoromethyl)-2-oxa-4-azabicyclo[4.1.0]hept-3-en-5-yl)-5-fluoro-4-methoxyphenyl)-5-chloropicolinamide] |
| 467 | C#Cc1ccc(C(=O)Nc2ccc(F)c([C@@]3(C(F)F)N=C(N)O[C@@H]4C[C@@H]43)c2)nc1 [Example 313, N-(3-((1R,5S,6R)-3-amino-5-(difluoromethyl)-2-oxa-4-azabicyclo[4.1.0]hept-3-en-5-yl)-4-fluorophenyl)-5-ethynylpicolinamide] |
| 220 | COc1c(F)cc(NC(=O)c2ccc(Cl)cn2)cc1[C@@]1(CF)N=C(N)O[C@@H]2C[C@@H]21 [Example 145, N-(3-((1R,5S,6R)-3-amino-5-(fluoromethyl)-2-oxa-4-azabicyclo[4.1.0]hept-3-en-5-yl)-5-fluoro-4-methoxyphenyl)-5-chloropicolinamide] |
| > 400 | NC1=N[C@@](c2cc(Nc3ncc(F)c4cc(Cl)cnc34)ccc2F)(C(F)F)[C@H]2C[C@H]2O1 [Example 361, (1R,5S,6R)-5-(5-((3-chloro-5-fluoro-1,7-naphthyridin-8-yl)amino)-2-fluorophenyl)-5-(difluoromethyl)-2-oxa-4-azabicyclo[4.1.0]hept-3-en-3-amine] |
| 1100 | N#Cc1cnc(C(=O)Nc2ccc(F)c([C@]3(C(F)F)N=C(N)O[C@H]4C[C@H]43)c2)c(Cl)c1 (racemic) [Example 62, N-(3-([1(R,S),5(S,R),6(R,S)]-3-amino-5-(difluoromethyl)-2-oxa-4-azabicyclo[4.1.0]hept-3-en-5-yl)-4-fluorophenyl)-3-chloro-5-cyanopicolinamide] |
| 213 | NC1=N[C@@](c2cc(NC(=O)c3ccc(Cl)cn3)cc(F)c2F)(C(F)F)[C@H]2C[C@H]2O1 [Example 107, N-(3-((1R,5S,6R)-3-amino-5-(difluoromethyl)-2-oxa-4-azabicyclo[4.1.0]hept-3-en-5-yl)-4,5-difluorophenyl)-5-chloropicolinamide] |
| 462 | Cc1cc(OCC#CC(C)(C)O)cnc1C(=O)Nc1ccc(F)c(C2(C)N=C(N)O[C@H]3C[C@H]32)c1 (mixture of isomers) [Example 29, N-(3-([1(R,S),5(S,R),6(R,S)]-3-amino-5-methyl-2-oxa-4-azabicyclo[4.1.0]hept-3-en-5-yl)-4-fluorophenyl)-5-((4-hydroxy-4-methylpent-2-yn-1-yl)oxy)-3-methylpicolinamide] |
| > 400 | N#Cc1ccc(C(=O)Nc2cc(F)c(F)c([C@@]3(C(F)F)N=C(N)O[C@@H]4C[C@@H]43)c2)nc1 (stereo in doubt) [Example 109, N-(3-((1R,5S,6R)-3-amino-5-(difluoromethyl)-2-oxa-4-azabicyclo[4.1.0]hept-3-en-5-yl)-4,5-difluorophenyl)-5-cyanopicolinamide] |

| Compound | IC50 [µM] |
| --- | --- |
| (R)-8-((3-((1R,5S,6R)-3-amino-5-(difluoromethyl)-2-oxa-4-azabicyclo[4.1.0]hept-3-en-5-yl)-4-fluorophenyl)amino)-5,6,7,8-tetrahydroquinoline-3-carbonitrile and (S)-8-((3-((1R,5S,6R)-3-amino-5-(difluoromethyl)-2-oxa-4-azabicyclo[4.1.0]hept-3-en-5-yl)-4-fluorophenyl)amino)-5,6,7,8-tetrahydroquinoline-3-carbonitrile [Example 403] | 469 |
| Cc1cc(NC(=O)c2ccc(Cl)cn2)cc([C@@]2(C(F)F)N=C(N)O[C@@H]3C[C@@H]32)c1F [Example 123, N-(3-((1R,5S,6R)-3-amino-5-(difluoromethyl)-2-oxa-4-azabicyclo[4.1.0]hept-3-en-5-yl)-4-fluoro-5-methylphenyl)-5-chloropicolinamide] | 257 |
| Cc1cc(NC(=O)c2ccc(Cl)cn2)cc([C@@]2(C(F)F)N=C(N)O[C@@H]3C[C@@H]32)c1F (racemic) [Example 30, N-(3-([(1R,S),(5S,R),(6R,S)]-3-amino-5-(difluoromethyl)-2-oxa-4-azabicyclo[4.1.0]hept-3-en-5-yl)-4-fluoro-5-methylphenyl)-5-chloropicolinamide] | 469 |
| COC(=O)c1ccc(C(=O)Nc2cc(F)c(F)c([C@]3(C(F)F)N=C(N)O[C@H]4C[C@H]43)c2)nc1 [Example 436, methyl 6-((3-((1S,5R,6S)-3-amino-5-(difluoromethyl)-2-oxa-4-azabicyclo[4.1.0]hept-3-en-5-yl)-4,5-difluorophenyl)carbamoyl)nicotinate] | 343 |

Each compound was assayed against Beta Secretase enzyme (BACE) (Homo sapiens (Human), UniProt P56817) (assay: In vitro enzymatic BACE FRET assay). Details: read-out: BACE1 Enzyme assay IC50.
Format: biochemical

Beta Secretase enzyme (BACE), sequence (P56817 46-501): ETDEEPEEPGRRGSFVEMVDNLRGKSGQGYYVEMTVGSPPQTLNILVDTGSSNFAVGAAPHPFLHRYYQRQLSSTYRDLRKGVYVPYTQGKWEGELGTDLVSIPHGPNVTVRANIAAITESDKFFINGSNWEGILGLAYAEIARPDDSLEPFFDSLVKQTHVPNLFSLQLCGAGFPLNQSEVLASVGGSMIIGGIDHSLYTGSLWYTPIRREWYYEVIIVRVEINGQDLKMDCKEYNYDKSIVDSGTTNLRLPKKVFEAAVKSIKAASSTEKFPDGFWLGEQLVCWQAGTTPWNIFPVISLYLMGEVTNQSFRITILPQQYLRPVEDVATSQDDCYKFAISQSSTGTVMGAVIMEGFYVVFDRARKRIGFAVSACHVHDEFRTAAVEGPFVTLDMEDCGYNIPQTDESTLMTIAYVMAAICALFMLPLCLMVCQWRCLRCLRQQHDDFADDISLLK

| Compound | IC50 [µM] |
| --- | --- |
| (R)-8-((3-((1R,5S,6R)-3-amino-5-(difluoromethyl)-2-oxa-4-azabicyclo[4.1.0]hept-3-en-5-yl)-4-fluorophenyl)amino)-5,6,7,8-tetrahydroquinoline-3-carbonitrile and (S)-8-((3-((1R,5S,6R)-3-amino-5-(difluoromethyl)-2-oxa-4-azabicyclo[4.1.0]hept-3-en-5-yl)-4-fluorophenyl)amino)-5,6,7,8-tetrahydroquinoline-3-carbonitrile [Example 403] | 2.85 |
| N=C1N[C@](CF)(c2cc(-c3cncc(F)c3)c(CO)cc2F)[C@H]2CC2O1 (stereo partly drawn) [Example 433, (5-fluoro-4-([(1R,S),(5S,R),(6R,S)]-5-(fluoromethyl)-3-imino-2-oxa-4-azabicyclo[4.1.0]heptan-5-yl)-2-(5-fluoropyridin-3-yl)phenyl)methanol] | 23.1 |
| (R)-4-((3-((1R,5S,6R)-3-amino-5-(difluoromethyl)-2-oxa-4-azabicyclo[4.1.0]hept-3-en-5-yl)-4-fluorophenyl)amino)chroman-7-carbonitrile and (S)-4-((3-((1R,5S,6R)-3-amino-5-(difluoromethyl)-2-oxa-4-azabicyclo[4.1.0]hept-3-en-5-yl)-4-fluorophenyl)amino)chroman-7-carbonitrile [Example 383] | 0.968 |
